Assay results published in patent publication US4751026A, “Substituted anilides of oleic, linoleic, or linolenic acid as inhibitors of acyl-coa:cholesterol acyltransferase” (Warner-Lambert Company, priority 1987, dated 1988).

How the values were obtained:
[1] = biological target: T1, acyl-CoA:cholesterol acyltransferase (ACAT) (Oryctolagus cuniculus, UniProt G1SFD9); assay: In vitro inhibition of ACAT: radio-labeled cholesterol oleate formed from radio-labeled oleic acid in rabbit intestinal microsomes; assay type: biochemical; conditions: inhibition of acylation of cholesterol by oleic acid
T1 construct: in a tissue preparation containing rabbit intestinal microsomes; from tissue; host or cells: rabbit intestine, microsomes
T1 sequence (G1SFD9 1-524): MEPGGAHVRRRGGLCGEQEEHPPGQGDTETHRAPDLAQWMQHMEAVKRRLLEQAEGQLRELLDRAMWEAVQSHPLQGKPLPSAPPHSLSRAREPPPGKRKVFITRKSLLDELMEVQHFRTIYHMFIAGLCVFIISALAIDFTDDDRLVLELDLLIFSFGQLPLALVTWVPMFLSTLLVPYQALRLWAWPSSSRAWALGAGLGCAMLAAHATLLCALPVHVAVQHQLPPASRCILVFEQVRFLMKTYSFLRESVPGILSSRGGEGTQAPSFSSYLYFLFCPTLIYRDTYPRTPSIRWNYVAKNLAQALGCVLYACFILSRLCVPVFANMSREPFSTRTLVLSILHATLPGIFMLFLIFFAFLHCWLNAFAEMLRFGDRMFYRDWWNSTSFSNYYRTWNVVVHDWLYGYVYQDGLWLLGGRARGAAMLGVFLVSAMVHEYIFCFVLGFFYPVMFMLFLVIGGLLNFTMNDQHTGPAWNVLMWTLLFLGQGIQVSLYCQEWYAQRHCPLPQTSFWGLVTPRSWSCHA
Experimental: The ability of representative compounds of the present invention to inhibit ACAT was measured using an in vitro test more fully described in Field, F. J. and Salone, R. G., Biochemica et Biophysica 712: 557-570 (1982). The test assesses the ability of a test compound to inhibit the acylation of cholesterol by oleic acid by measuring the amount of radio-labeled cholesterol oleate formed from radio-labeled oleic acid in a tissue preparation containing rabbit intestinal microsomes.
The data appear in Table 1 where they are expressed as IC50 values; i.e. the concentration of test compound required to inhibit 50% […] of the enzyme.

Serum LDL Cholesterol = assay: In vivo serum cholesterol lowering in cholesterol-fed rabbits; set-up: species or system Male, New Zealand white rabbits; conditions: cholesterol-enriched diet, oral 50 mg/kg thirty minutes prior to each meal for seven days, three hours after last meal
Source text: Male, New Zealand white rabbits weighing approximately 1 kg were fed a normal diet 40 g per day of rabbit chow (Purina No. 5321, Ralston Purina Co., 711 West Fuesser Road, Mascoutah, Ill., 62224, USA). After six days on this diet, the rabbits were fed 50 g per day for three days of a cholsterol-enriched diet consisting of one part of a cholesterol-containing chow (Purina Catalog No. 841206WLI, 0.25% cholesterol) and two parts of normal chow. Next, the rabbits were fed 60 g per day for four days of a cholsterol-enriched diet consisting of two parts of a cholesterol-containing chow (Purina Catalog No. 814206WLI, 0.25% cholesterol) and one part of normal chow.
After this meal adaptation and cholesterol loading period, the test compounds of this invention were administered to the test animals in oral doses of 50 mg/kg of body weight thirty minutes prior to each meal for seven days. Control animals were administered vehicle only.
The animals were sacrificed three hours after their last meal in the postabsorptive state. Serum cholesterol levels were determined for each animal, and the data appear in Table 2 expressed as percent change in serum cholesterol level compared to control.

| SMILES | IC50 [1] [nM] | Percent Change in Serum LDL Cholesterol From Control (Serum LDL Cholesterol) [%] |
| --- | --- | --- |
| CCCCCCCC/C=C\CCCCCCCC(=O)Nc1c(OC)cc(OC)cc1OC [(Z)-N-(2,4,6-Trimethoxyphenyl)-9-octadecenamide] | 60 | -53 |
| CCCCC/C=C\C/C=C\CCCCCCCC(=O)Nc1c(OC)cc(OC)cc1OC [(Z,Z)-N-(2,4,6-Trimethoxyphenyl)-9,12-octadecadienamide] | 42 |  |
| CC/C=C\C/C=C\C/C=C\CCCCCCCC(=O)Nc1c(OC)cc(OC)cc1OC [(Z,Z,Z)-N-(2,4,6-Trimethoxyphenyl)-9,12,15-octadecatrienamide] | 86 |  |
